{
  "source": "patent US9610281B2",
  "about": "(priority 2012, dated 2017)",
  "key": {"[1]": {"tested_on": "CD-1 mice", "assay": "Thermal radiation tail-flick experiment I in mice (analgesic effect)", "assay_type": "in vivo", "settings": "for Tail-flick threshold: injected into abdominal cavity, 30 min after dosing, cut-off 22 sec", "description": "Thermal Radiation Tail-flick Experiment I in Mice (Tail-flick assay): to Evaluate the Analgesic Effect In Vivo of the Compounds of the Present Invention.\n(§1) Select CD-1 mice (with the original weight being 30-40 g) and divide them into 6 groups (solvent group, morphine group, 1-THP group and DHCB groups with different doses: 5, 10, and 40 mg/kg), each including 9-11 mice. Place mice tails on the thermal radiation tail-flick apparatus and direct the light beam at ⅓ of the mice tails. First determine the basic pain thresholds of each group of mice, then inject the test samples into the abdominal cavities of the mice respectively, and after 30 min, re-determine the mice's pain thresholds. The irradiation time was no more than 22 sec. See Table 2 for the determination results."}, "[2]": {"tested_on": "mice", "assay": "Drug resistance experiment (mice tail-flick under thermal radiation, 7 days)", "assay_type": "in vivo", "settings": "successive 7 days, DHCB 10 mg/kg into abdominal cavity, thresholds every other day", "description": "Drug resistance is a defect existing in many commonly used analgesics, which constitutes great limitations on their use. This experiment studies the drug resistance of DHCB through mice tail-flick under thermal radiation. During the experiment, DHCB (10 mg/kg) had been injected into the abdominal cavity of the mice for successive 7 days and the mice's pain thresholds had been detected every other day."}, "[3]": {"tested_on": "CD-1 mice", "assay": "Thermal radiation tail-flick experiment II in mice (duration time of analgesic effect)", "assay_type": "in vivo", "settings": "pain thresholds within 6 hours; DHCB 20 and 40 mg/kg", "description": "Thermal Radiation Tail-flick Experiment II in Mice (Tail-flick Assay): to Evaluate the Duration Time of the Analgesic Effect In Vivo of the Compounds of the Present Invention.\nas §1, with “group,” for “group, 1-THP group”, “doses:” for “doses: 5,”, “10, 20” for “10,”, “determine” for “after 30 min, re-determine”, “thresholds within 6 hours according to time points.” for “thresholds.”, “sec.” for “sec. See Table 2 for the determination results.”"}, "[4]": {"target": "T1, dopamine D2 receptor (Homo sapiens, UniProt P14416)", "T1 construct": "expressed in transfected cells; host or cells: HEK293T (transiently transfected)", "T1 sequence (P14416 whole entry, species assumed)": "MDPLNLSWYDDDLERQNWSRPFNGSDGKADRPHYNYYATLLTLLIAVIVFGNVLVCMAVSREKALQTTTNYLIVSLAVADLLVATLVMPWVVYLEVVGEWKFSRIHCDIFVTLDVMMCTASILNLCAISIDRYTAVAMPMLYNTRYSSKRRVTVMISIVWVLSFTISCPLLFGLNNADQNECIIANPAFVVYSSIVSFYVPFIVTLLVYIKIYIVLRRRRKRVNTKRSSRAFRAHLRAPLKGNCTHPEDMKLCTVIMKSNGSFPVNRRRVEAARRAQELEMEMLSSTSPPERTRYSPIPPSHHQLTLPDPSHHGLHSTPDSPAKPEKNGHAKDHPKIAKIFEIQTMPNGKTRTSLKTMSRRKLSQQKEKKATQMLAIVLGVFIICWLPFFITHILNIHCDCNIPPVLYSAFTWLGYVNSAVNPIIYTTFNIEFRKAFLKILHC", "assay": "FLIPR Ca2+ assay, antagonist of dopamine D2 receptor in transiently transfected HEK293T cells", "assay_type": "cell-based", "settings": "for antagonist effect on dopamine D2 receptor: intracellular Ca2+, vs DMSO blank", "description": "(§2) Experimental scheme: the cells used to express μ opioid receptors in this research are stably transfected human embryonic kidney 293T cells (HEK293T); the dopamine receptor applied is transiently transfected HEK293T. In this scheme, part of the berberine derivatives obtained in the present invention were added to the cells that have expressed with corresponding receptors, and FLIPR (Fluorometric Imaging Plate Reader; Molecular Devices Corp) was applied to screen and identify their functions. Specifically: inoculate cells to a 96-well cell culture plate coated with poly-D-lysme based on 80,000 per well, after 24 hours, remove the medium, add 100 μl fluorescent dye solution (2 μM Fluo-4 AM dissolves first in pluronic acid and then in the buffer composed of haploid Hank's buffer and 20 mM HEPES, with pH 7.4) to each well and keep it at 37° C. for 1 hour, then wash the cells with the buffer three times. Dissolve the compounds to be tested with DMSO and put them in a 96-well plate, apply FLIPR to automatically add samples to the cell culture plate and incubate for 3 min (for the tests of agonist of μ-opioid receptor) or 10 min (for the tests of antagonist of dopamine receptor). Then perform fluorescence detection under the wavelength of 520 nm and 488 nm, thus monitoring the concentration of Ca^2+ in the cells.\n(§3) The experimental scheme is the same as that in example 1, except that when adding, dilute the compounds to be tested with buffer to different concentrations, so as to detect responses under different doses. This method has been used to test DHCB effect on μ-opioid receptors and 5 dopamine receptors, with the results as shown in FIG. 3 and Table 1. […] In addition, μ-opioid receptor's weak synergism can further enhance the analgesic effect of DHCB."}, "[5]": {"target": "T2, μ opioid receptor (Homo sapiens, UniProt P35372)", "T2 construct": "expressed in transfected cells; host or cells: HEK293T (stably transfected)", "T2 sequence (P35372 whole entry, species assumed)": "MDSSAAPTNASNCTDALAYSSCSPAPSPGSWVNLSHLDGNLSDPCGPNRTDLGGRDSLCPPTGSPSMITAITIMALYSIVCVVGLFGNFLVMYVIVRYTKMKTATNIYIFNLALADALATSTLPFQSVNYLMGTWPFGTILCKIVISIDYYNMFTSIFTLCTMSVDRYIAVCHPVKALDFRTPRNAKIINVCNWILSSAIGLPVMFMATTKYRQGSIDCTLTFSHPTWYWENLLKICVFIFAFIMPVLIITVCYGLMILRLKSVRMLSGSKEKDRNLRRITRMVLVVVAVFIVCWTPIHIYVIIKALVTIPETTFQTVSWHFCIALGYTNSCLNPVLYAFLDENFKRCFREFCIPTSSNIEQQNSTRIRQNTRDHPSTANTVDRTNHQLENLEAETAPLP", "assay": "FLIPR Ca2+ assay, agonist of μ opioid receptor in stably transfected HEK293T cells", "assay_type": "cell-based", "settings": "for agonist effect on μ opioid receptor: intracellular Ca2+, vs DMSO blank", "description": "as §2, §3"}, "[6]": {"target": "T3, Dopamine D4 (Homo sapiens, UniProt P21917)", "T3 construct": "expressed in transfected cells; host or cells: HEK293T (transiently transfected)", "T3 sequence (P21917 1-419)": "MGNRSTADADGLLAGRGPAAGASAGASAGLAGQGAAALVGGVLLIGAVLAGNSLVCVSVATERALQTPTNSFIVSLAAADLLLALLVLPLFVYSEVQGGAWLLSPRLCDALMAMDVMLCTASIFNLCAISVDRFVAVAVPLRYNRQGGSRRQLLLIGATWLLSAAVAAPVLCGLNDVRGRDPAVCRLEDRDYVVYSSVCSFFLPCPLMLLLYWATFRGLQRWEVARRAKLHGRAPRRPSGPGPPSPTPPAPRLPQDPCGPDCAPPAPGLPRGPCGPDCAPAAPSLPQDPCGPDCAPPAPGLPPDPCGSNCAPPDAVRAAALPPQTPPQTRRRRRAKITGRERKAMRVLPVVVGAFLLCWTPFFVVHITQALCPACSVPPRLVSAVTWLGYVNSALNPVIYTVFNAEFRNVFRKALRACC", "assay": "FLIPR Ca2+ assay, antagonist of dopamine D4 receptor in transiently transfected HEK293T cells", "assay_type": "cell-based", "description": "as §2, with “cells. […]” for “cells.”"}, "[7]": {"target": "T4, Dopamine D1 (Homo sapiens, UniProt P21728)", "T4 construct": "expressed in transfected cells; host or cells: HEK293T (transiently transfected)", "T4 sequence (P21728 whole entry)": "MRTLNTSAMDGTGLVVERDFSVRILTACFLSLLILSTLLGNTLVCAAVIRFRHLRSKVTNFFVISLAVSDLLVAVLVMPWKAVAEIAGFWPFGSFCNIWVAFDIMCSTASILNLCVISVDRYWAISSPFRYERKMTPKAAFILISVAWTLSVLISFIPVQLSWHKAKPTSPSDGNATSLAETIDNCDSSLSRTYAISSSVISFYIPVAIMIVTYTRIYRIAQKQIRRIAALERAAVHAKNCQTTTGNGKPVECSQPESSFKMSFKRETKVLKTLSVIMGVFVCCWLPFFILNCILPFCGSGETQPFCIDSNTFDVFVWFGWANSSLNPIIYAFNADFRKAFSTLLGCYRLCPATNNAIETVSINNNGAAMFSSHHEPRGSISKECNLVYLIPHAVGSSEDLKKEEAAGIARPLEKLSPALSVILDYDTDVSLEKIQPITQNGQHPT", "assay": "FLIPR Ca2+ assay, antagonist of dopamine D1 receptor in transiently transfected HEK293T cells", "assay_type": "cell-based", "description": "as §2, with “cells. […]” for “cells.”"}, "[8]": {"target": "T5, Dopamine D3 (Homo sapiens, UniProt P35462)", "T5 construct": "expressed in transfected cells; host or cells: HEK293T (transiently transfected)", "T5 sequence (P35462 whole entry)": "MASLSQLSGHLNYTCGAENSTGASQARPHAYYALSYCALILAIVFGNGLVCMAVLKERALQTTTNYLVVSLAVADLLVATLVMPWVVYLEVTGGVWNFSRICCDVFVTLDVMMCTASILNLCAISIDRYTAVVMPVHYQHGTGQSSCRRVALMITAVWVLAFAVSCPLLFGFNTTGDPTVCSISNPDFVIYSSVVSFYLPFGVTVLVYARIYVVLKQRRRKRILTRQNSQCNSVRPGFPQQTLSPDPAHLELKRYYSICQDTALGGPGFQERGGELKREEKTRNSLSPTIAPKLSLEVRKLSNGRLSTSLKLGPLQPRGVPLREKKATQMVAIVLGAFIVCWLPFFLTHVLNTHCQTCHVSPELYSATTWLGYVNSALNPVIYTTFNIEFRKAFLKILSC", "assay": "FLIPR Ca2+ assay, antagonist of dopamine D3 receptor in transiently transfected HEK293T cells", "assay_type": "cell-based", "description": "as §2, with “cells. […]” for “cells.”"}, "[9]": {"target": "T6, Dopamine D5 (Homo sapiens, UniProt P21918)", "T6 construct": "expressed in transfected cells; host or cells: HEK293T (transiently transfected)", "T6 sequence (P21918 whole entry)": "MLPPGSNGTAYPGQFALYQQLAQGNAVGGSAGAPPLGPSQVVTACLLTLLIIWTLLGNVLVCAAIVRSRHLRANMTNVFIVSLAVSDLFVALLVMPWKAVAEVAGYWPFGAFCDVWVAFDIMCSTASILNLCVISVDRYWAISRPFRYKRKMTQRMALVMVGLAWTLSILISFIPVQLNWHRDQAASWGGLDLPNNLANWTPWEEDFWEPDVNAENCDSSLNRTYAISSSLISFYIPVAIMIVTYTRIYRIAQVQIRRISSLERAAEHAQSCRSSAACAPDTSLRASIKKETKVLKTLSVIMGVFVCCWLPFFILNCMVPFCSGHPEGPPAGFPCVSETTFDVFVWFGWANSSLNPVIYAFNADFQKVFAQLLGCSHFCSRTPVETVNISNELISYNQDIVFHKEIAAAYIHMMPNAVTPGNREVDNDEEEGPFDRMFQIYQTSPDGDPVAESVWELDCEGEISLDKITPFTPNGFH", "assay": "FLIPR Ca2+ assay, antagonist of dopamine D5 receptor in transiently transfected HEK293T cells", "assay_type": "cell-based", "description": "as §2, with “cells. […]” for “cells.”"}, "[10]": {"tested_on": "CD-1 mice", "assay": "Formalin pain experiment in mice", "assay_type": "in vivo", "settings": "5% formalin 15 min after drug", "description": "Activity Example 5: to Evaluate the Analgesic Effect In Vivo of the Compounds of the Present Invention Through Formalin Pain Experiment in Mice.\nSelect CD-1 mice (with the original weight being 30-40 g) and divide them into 4 groups (solvent group, morphine group, and DHCB groups with different doses: 5 and 10 mg/kg), each including 9-11 mice. Place hind paws of the mice that are marked with formalin injection into the cages for 15-30 min. Inject drugs of corresponding doses into each mouse, and after 15 min, infuse 5% formalin solution subcutaneously into the underside of marked paw feet. The mice soon began to lick or bite their injected feet. Keep observation for 50 min, and record mice feet-licking time within phase I (0-5 min) and phase II (10-50 min)."}},
  "data": [
    {"compound": "COc1cc2c(cc1OC)[C@@H]1Cc3ccc(OC)c(OC)c3CN1CC2", "note": "[Compound 1-THP, L-tetrahydropalmatine, reference compound]", "values": [
      {"measurement": "Tail-flick threshold", "setting": "[1]; 10 mg/kg", "result": 10, "unit": "s"}
    ]},
    {"compound": "CN1CC[C@]23c4c5ccc(O)c4O[C@H]2[C@@H](O)C=C[C@H]3[C@H]1C5", "note": "[morphine, reference compound]", "values": [
      {"measurement": "Tail-flick threshold", "setting": "[1]; 10 mg/kg", "result": 20, "unit": "s"},
      {"measurement": "analgesic effect on repeated dosing (drug resistance)", "setting": "[2]", "result": "began to reduce obviously from the third day"},
      {"measurement": "duration of analgesic effect in tail-flick", "setting": "[3]", "result": "weakens quickly two hours later"}
    ]},
    {"compound": "COc1cc2c(cc1O)-c1c(C)c3ccc(OC)c(O)c3c[n+]1CC2", "note": "[Compound 14]", "values": [
      {"measurement": "antagonist effect on dopamine D2 receptor", "setting": "[4]; FLIPR, HEK293T", "result": "good antagonist"}
    ]},
    {"compound": "COc1cc2c(cc1O)-c1c(C)c3ccc(OC)c(OC)c3c[n+]1CC2", "note": "[Compound 10]", "values": [
      {"measurement": "antagonist effect on dopamine D2 receptor", "setting": "[4]; FLIPR, HEK293T", "result": "good antagonist"}
    ]},
    {"compound": "COc1cc2c(cc1O)CC[n+]1cc3c(O)c(OC)ccc3c(C)c1-2", "note": "[Compound 16]", "values": [
      {"measurement": "antagonist effect on dopamine D2 receptor", "setting": "[4]; FLIPR, HEK293T", "result": "good antagonist"},
      {"measurement": "agonist effect on μ opioid receptor", "setting": "[5]", "result": "a certain agonist"}
    ]},
    {"compound": "COc1cc2c(cc1O)CC[n+]1cc3c(OC)c(OC)ccc3c(C)c1-2", "note": "[Compound 12, dehydrocorybulbine]", "values": [
      {"measurement": "effect on dopamine D4 receptor", "setting": "[6]; dose-effect", "result": "antagonist"},
      {"measurement": "IC50", "setting": "[6]; dose-effect curve, HEK293T", "result": 8400, "unit": "nM"},
      {"measurement": "antagonist activity on D2 compared with THP", "setting": "[4]; FLIPR screen, THP positive control", "result": "equivalent to that of THP"},
      {"measurement": "antagonist effect on dopamine D2 receptor", "setting": "[4]; FLIPR, HEK293T", "result": "good antagonist"},
      {"measurement": "antagonist effect on dopamine D2 receptor", "setting": "[4]; FLIPR, HEK293T, listed as DHCB", "result": "antagonist"},
      {"measurement": "IC50", "setting": "[4]; dose-effect curve, FLIPR, HEK293T", "result": 520, "unit": "nM"},
      {"measurement": "Tail-flick threshold", "setting": "[1]; 5 mg/kg", "result": 9, "unit": "s"},
      {"measurement": "Tail-flick threshold", "setting": "[1]; 10 mg/kg", "result": 12, "unit": "s"},
      {"measurement": "Tail-flick threshold", "setting": "[1]; 40 mg/kg", "result": 17, "unit": "s"},
      {"measurement": "analgesic effect in tail-flick", "setting": "[1]; doses of 5, 10, and 40 mg/kg", "result": "significant dose-dependent analgesic effect"},
      {"measurement": "analgesic effect on heat stimulation compared with morphine", "setting": "[1]; high dose 40 mg/kg", "result": "close to that of small-dose morphine"},
      {"measurement": "analgesic effect in tail-flick compared with controls", "setting": "[1]; low dose 10 mg/kg", "result": "superior to that of THP"},
      {"measurement": "effect on dopamine D1 receptor", "setting": "[7]; dose-effect", "result": "antagonist"},
      {"measurement": "IC50", "setting": "[7]; dose-effect curve, HEK293T", "result": 2160, "unit": "nM"},
      {"measurement": "EC50", "setting": "[5]; dose-effect curve", "result": 100000, "unit": "nM"},
      {"measurement": "agonist effect on μ opioid receptor", "setting": "[5]", "result": "a certain agonist"},
      {"measurement": "agonist effect on μ opioid receptor", "setting": "[5]; listed as DHCB", "result": "weak agonist"},
      {"measurement": "effect on dopamine D3 receptor", "setting": "[8]; dose-effect", "result": "antagonist"},
      {"measurement": "IC50", "setting": "[8]; dose-effect curve, HEK293T", "result": 2400, "unit": "nM"},
      {"measurement": "effect on dopamine D5 receptor", "setting": "[9]; dose-effect", "result": "antagonist"},
      {"measurement": "IC50", "setting": "[9]; dose-effect curve, HEK293T", "result": 730, "unit": "nM"},
      {"measurement": "analgesic effect on repeated dosing (drug resistance)", "setting": "[2]", "result": "unchanged analgesic effect"},
      {"measurement": "duration of analgesic effect in tail-flick", "setting": "[3]", "result": "does not exhibit conspicuous attenuation until four hours have passed"},
      {"measurement": "analgesic effect within phase I (0-5 min), feet-licking time", "setting": "[10]; 5 mg/kg and 10 mg/kg", "result": "substantial analgesic effect"},
      {"measurement": "analgesic effect within phase II (10-50 min), feet-licking time", "setting": "[10]; 10 mg/kg", "result": "significant analgesic effect"}
    ]}
  ]
}
